The term IC50 denotes the concentration that gives 50% inhibition. The Kd is the concentration at which binding is half-saturated. High values mean a looser complex, low ones a tighter complex.

Test [1] addresses T1, Complement factor B (Homo sapiens, UniProt P00751). As to the kind of experiment: Human complement factor B ELISA assay (CVF-Bb, complement C3 protein). In kind it is biochemical. Further details: followed by the addition of 0.2 μL of CVF-Bb (0.1 μmol/mL). To be noted: CVF-Bb incubated with compound 1 hour, then complement C3 protein 37° C. 2 hours, OD 450 nm. How it is done:
The mixture was incubated at room temperature for 1 hour;
Then, 9 μL of the successfully incubated samples were taken and added to the wells of the 96T plate, followed by the addition of 1 μL complement C3 protein, and the reaction was carried out at a constant temperature of 37° C. for 2 hours;
The 9 μL of the aforementioned sample-free liquid was mixed with 1 μL of complement C3 protein as the negative control; • 10 μL of the successfully incubated sample was taken, and the inhibitory concentration was determined by ELISA. The OD value at 450 nm was measured, and a curve was plotted. The obtained data were analyzed using GraphPad Prism 7.0 software, and a Log concentration-inhibition rate curve was generated using a nonlinear regression model to calculate the IC50 value.
Target sequence in this assay (P00751 260-764 limits assumed): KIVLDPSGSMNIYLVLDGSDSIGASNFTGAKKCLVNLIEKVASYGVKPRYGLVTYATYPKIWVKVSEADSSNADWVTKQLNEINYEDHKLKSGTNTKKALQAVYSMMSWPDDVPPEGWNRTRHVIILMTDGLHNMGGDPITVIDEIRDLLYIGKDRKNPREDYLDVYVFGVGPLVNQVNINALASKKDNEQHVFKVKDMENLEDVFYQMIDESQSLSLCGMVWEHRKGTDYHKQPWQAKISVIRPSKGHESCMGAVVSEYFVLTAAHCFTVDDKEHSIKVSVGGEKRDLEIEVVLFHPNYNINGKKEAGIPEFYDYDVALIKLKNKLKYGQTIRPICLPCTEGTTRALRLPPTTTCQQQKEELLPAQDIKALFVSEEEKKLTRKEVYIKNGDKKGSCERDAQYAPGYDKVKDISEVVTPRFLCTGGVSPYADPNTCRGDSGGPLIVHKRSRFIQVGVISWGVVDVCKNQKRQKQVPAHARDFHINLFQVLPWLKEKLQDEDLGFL
Target sequence in this assay (Q91132 23-649 partner limits assumed): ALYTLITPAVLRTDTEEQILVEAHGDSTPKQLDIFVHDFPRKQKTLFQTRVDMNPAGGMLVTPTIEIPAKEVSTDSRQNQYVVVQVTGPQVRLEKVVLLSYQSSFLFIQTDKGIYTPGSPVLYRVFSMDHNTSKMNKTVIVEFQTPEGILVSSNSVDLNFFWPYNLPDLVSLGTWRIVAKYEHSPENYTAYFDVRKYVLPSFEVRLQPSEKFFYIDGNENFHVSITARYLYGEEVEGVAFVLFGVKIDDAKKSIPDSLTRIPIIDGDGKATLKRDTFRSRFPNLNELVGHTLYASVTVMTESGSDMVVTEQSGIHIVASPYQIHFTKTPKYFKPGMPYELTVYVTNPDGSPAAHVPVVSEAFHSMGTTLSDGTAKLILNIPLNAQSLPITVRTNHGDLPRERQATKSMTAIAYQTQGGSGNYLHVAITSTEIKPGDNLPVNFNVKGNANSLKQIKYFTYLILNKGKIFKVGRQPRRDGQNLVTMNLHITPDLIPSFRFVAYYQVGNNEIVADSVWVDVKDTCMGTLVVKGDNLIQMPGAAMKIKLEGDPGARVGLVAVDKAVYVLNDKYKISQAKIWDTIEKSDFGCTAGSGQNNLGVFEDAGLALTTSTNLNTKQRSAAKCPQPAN
Target sequence in this assay (Q91132 733-984 partner limits assumed): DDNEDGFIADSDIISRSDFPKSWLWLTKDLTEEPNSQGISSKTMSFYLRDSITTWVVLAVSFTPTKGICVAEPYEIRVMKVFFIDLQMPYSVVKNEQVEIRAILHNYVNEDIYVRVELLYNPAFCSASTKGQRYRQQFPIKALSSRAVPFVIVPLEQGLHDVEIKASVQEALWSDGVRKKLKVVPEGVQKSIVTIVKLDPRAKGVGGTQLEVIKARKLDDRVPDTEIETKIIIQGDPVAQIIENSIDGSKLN
Target sequence in this assay (Q91132 1264-1642 partner limits assumed): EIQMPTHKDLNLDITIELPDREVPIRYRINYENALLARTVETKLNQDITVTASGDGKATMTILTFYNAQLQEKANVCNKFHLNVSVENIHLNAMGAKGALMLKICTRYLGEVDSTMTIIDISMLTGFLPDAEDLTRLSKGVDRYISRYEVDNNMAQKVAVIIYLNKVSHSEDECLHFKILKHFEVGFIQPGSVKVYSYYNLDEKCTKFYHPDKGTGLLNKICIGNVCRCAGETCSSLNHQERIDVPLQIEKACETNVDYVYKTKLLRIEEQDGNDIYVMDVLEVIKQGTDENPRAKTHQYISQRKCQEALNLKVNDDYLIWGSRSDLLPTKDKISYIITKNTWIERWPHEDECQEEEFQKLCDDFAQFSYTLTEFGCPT

Test [2] deals with T1, Complement factor B. As to the kind of experiment: Optical surface plasmon resonance (SPR) binding affinity assay. For orientation: SPR reads the build-up and loss of mass on a sensor chip optically.
Target sequence in this assay (P00751 26-764): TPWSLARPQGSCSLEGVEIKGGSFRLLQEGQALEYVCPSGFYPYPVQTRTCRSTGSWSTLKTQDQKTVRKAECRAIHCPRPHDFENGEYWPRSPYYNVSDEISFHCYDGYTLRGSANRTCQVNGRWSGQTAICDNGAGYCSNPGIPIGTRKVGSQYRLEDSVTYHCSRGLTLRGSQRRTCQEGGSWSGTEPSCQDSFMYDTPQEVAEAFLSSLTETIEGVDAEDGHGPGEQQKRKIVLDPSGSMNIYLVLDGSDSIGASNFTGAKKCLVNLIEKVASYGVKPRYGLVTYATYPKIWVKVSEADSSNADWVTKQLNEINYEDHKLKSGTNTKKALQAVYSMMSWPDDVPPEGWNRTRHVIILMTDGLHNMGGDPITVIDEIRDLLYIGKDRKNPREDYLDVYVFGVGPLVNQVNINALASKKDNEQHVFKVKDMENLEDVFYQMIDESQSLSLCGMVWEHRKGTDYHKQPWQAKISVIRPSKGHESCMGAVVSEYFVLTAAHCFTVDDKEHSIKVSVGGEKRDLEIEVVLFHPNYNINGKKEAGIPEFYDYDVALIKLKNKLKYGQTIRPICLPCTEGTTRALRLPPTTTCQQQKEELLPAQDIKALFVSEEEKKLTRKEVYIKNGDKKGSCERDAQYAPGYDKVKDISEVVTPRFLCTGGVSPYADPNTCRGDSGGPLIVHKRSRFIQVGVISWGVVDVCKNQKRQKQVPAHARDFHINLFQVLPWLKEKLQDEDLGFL
Method: The SPR experiment was conducted at 25° C. using PBS buffer supplemented with 0.05% (v/v) P20 and 5% DMSO as the running buffer. The Biacore 8K instrument from GE Healthcare was employed for analysis. The CM3 chip (GE Healthcare) was activated with 400 mM EDC and 100 mM NHS at a flow rate of 30 μL/min for 420 s.
In another test the test system is PNH-like erythrocytes. The experiment in a line: Alternative pathway inhibition assay of PNH-like erythrocyte. It is filed as cell-based. Conditions: 1 h, AET/anti-CD55 sensitized human erythrocytes, acidified normal human serum pH 6.4, 37° C. 60 min. An excerpt:
Principle: PNH, as an indication for complement inhibitors, was typically tested using the Ham test, which states that acidified serum was capable of activating the alternative pathway, leading to hemolysis of PNH erythrocytes, while normal erythrocytes remained unaffected. It was reported in the literature that AET could disrupt the complement regulatory proteins on the surface of normal human erythrocytes, resulting in PNH-like erythrocytes.
Reagents and instrument: PBS buffer, normal human serum (NHS), Alsever's solution, microplate reader, MgCl2, EGTA, EDTA, HCl, normal human erythrocytes, AET; anti-CD-55 antibody (BRIC216; Sigma)
PBS buffer: Potassium dihydrogen phosphate (KH2PO4): 0.24 g/L, disodium hydrogen phosphate (Na2HPO4): 1.44 g/L, sodium chloride (NaCl): 8 g/L, potassium chloride (KCl): 0.2 g/L, pH 7.4
PBSE buffer: PBS, 10 mM EDTA; pH 7.4
PBSMg buffer: PBS, 1 mM Mg++; pH 6.4
10× Mg-EGTA stock solution: 25 mM MgCl2, 80 mM EGTA; pH 6.4
10× EDTA stock solution: 100 mM EDTA; pH 6.4
Method: The inhibition of alternative pathway-mediated erythrocyte lysis was evaluated using an in vitro model of PNH. Normal human erythrocytes were sensitized with 2-aminoethylisothiouronium bromide (AET) to inactivate complement regulatory proteins on the cell surface and induce a PNH-like phenotype.
2 mL of normal human erythrocytes were mixed with 2 mL of Alsever's solution, washed three times with PBS, and centrifuged at 2500×g, with the upper 10% of the erythrocytes being removed each time. The washed 1 mL erythrocytes were sensitized by incubation with 4 mL of 8% w/v AET (pH 8.0) at 37° C. for 10 min, followed by three additional washes with PBS. Subsequently, the concentration of erythrocytes in PBS (erythrocyte stock solution) was adjusted with PBS such that an absorbance of 1.5-2.0 at 412 nm (indicating hemoglobin release) was achieved upon dilution of 10 μL erythrocyte stock solution with 190 μL water.
1.5 mL of the erythrocyte stock solution was mixed with anti-CD55 antibody (BRIC216; Sigma/final concentration of 6.7 μg/mL) and incubated on ice for 30 min. After being washed once with PBS, the treated erythrocytes were resuspended in PBS-Mg to the initial volume of 1.5 mL. The following AP-mediated lysis assay was performed on this erythrocyte preparation with induced PNH phenotype.
The normal human serum was acidified with 0.2 M HCl to pH 6.4, and supplemented with MgCl2 and EGTA to final concentrations of 2.5 and 8 mM, respectively. 80 μL of this serum mixture was mixed with 10 μL of PBS-Mg (negative blank) or 10 μL of samples at various concentrations. Normal human serum was acidified with 0.2 M HCl to pH 6.4, supplemented with EDTA to a final concentration of 10 mM, and 80 μL of this serum mixture was mixed with 10 μL of PBS-Mg (negative blank) as a blank positive control. The sample was incubated with serum on ice for 5 min, and then 10 μL of sensitized erythrocytes were added. The final serum concentration in the reaction mixture was approximately 64% v/v, incubated at 37° C. for 60 min, and the reaction was quenched by adding 50 μL of ice-cold PBS containing 10 mM EDTA. The remaining unlysed cells were centrifuged at 2500×g for 10 min, and 100 μL of the supernatant was transferred to a 96-well plate to measure its absorbance at 412 nm. The amount of hemoglobin released during erythrocyte lysis was thereby quantified. […] represented the relative lysis of PNH-like erythrocytes (expressed in %; set to 0% for the PC sample and 100% for the NC sample). The absorbance was measured using a microplate reader (Molecular Devices SpectraMax 3X). The IC50 value was calculated by applying nonlinear regression with GraphPad Prism 9.0 software from the percentage of hemolysis as a function of the test compound concentration.

Take `COc1cc(C)c2[nH]ccc2c1C(=O)N1CC[C@H](OC)C[C@H]1c1ccc(C(=O)O)cc1` [Final product of Example 156, 4-((2S,4S)-4-Methoxy-1-(5-methoxy-7-methyl-1H-indole-4-carbonyl)piperidin-2-yl)benzoic acid]: the IC50 at Complement factor B [1] was in the range of 150 to 300 nM; in the test with PNH-like erythrocytes, 1000 to 1500 nM. The molecule further gave a Kd at Complement factor B [2] of 10 to 30 nM.
As for `COc1cc(C)c2[nH]ccc2c1C(=O)N1CCC(O)(C2CCC2)C[C@H]1c1ccc(C(=O)O)cc1` (mixture of isomers) [Final product of Example 154, 4-((2S)-4-Cyclobutyl-4-hydroxy-1-(5-methoxy-7-methyl-1H-indole-4-carbonyl)piperidin-2-yl)benzoic acid], the IC50 fell in the range of 400 to 450 nM at Complement factor B [1] and 4000 to 4500 nM in the test with PNH-like erythrocytes. This molecule also yielded a Kd on Complement factor B [2] of 10 to 30 nM.
In the same order, the values of `COc1cc(C)c2[nH]ccc2c1C(=O)N1CCC(O)(C2CC2)C[C@H]1c1ccc(C(=O)O)cc1` (stereo partly drawn) [Final product of Example 155, 4-((2S)-4-Cyclopropyl-4-hydroxy-1-(5-methoxy-7-methyl-1H-indole-4-carbonyl)piperidin-2-yl)benzoic Acid] are 150 to 300 nM, 1000 to 1500 nM and 10 to 30 nM.
Consider `CCO[C@H]1CCN(S(=O)(=O)c2c(OC)cc(C)c3[nH]ccc23)[C@H](c2ccc(C(=O)O)cc2)C1` [Compound 51 of Example 144, 4-((2S,4S)-4-Ethoxy-1-((5-methoxy-7-methyl-1H-indol-4-yl)sulfonyl)piperidin-2-yl)benzoic acid], for which the IC50 was in the range of 300 to 500 nM on Complement factor B [1] and 2000 to 2500 nM with PNH-like erythrocytes. Also, at Complement factor B [2], the Kd was in the range of 10 to 30 nM.
In the same order, the values of `COc1cc(C)c2[nH]ccc2c1C(=O)N1CC[C@H](OC2CCC2)C[C@H]1c1ccc(C(=O)O)cc1` [Final product of Example 157, 4-((2S,4S)-4-Cyclobutoxy-1-(5-methoxy-7-methyl-1H-indole-4-carbonyl)piperidin-2-yl)benzoic acid] are 400 to 450 nM, 4000 to 4500 nM and 10 to 30 nM.
Turning to `COc1cc(C)c2[nH]ccc2c1C(=O)N1CC[C@H](OCC2CC2)C[C@H]1c1ccc(C(=O)O)cc1` [Compound 9 of Example 71, 4-((2S,4S)-4-(Cyclopropylmethoxy)-1-(5-methoxy-7-methyl-1H-indole-4-carbonyl)piperidin-2-yl)benzoic acid], on Complement factor B [2], the Kd is 10 to 30 nM. Further, the IC50 in the test with PNH-like erythrocytes lay in the range of 6000 to 6500 nM.
`CCO[C@H]1CCN(C(=O)c2c(OC)cc(C)c3[nH]ccc23)[C@H](c2ccc(C(=O)O)cc2)C1` [Compound 1 of Example 55, 4-((2S,4S)-4-Ethoxy-1-(5-methoxy-7-methyl-1H-indole-4-carbonyl)piperidin-2-yl)benzoic acid]: the results for the IC50 on Complement factor B [1] and with PNH-like erythrocytes were 150 to 300 nM and 1000 to 1500 nM, respectively. Besides, the equilibrium dissociation constant (Kd) on Complement factor B [2] is 10 to 30 nM.
As for `CCO[C@H]1CCN(Cc2c(OC)cc(C)c3[nH]ccc23)[C@H](c2ccc(C(=O)O)cc2)C1` [LNP023, reference compound], in the test on PNH-like erythrocytes, the 50% inhibitory concentration (IC50) was 224 nM.

The values above are taken from patent US20260184689A1, “PIPERIDINE-SUBSTITUTED BENZOIC ACID COMPOUND, AND PHARMACEUTICAL COMPOSITION AND USE THEREOF” (SHANGHAI YISHENG BIOPHARMACEUTICAL COMPANY LIMITED, priority 2022, published 2026).
